Values after ≈ are worked out from the molar mass of the structure shown. Like-named read-outs stand apart in the source and are kept apart here. One block for each compound: values may come before it.
What was measured:
[1] = system: various Aspergillus species; experiment: Robotic MIC assay, summary over species (Example 4); type: cell-based; conditions: Aspergillus species tested
Procedure: Aspergillus sp. was grown at 30° C. for 96 h on YM-agar. Spores and aerial mycelium was cut out from the agar, suspended in 1 ml YM-broth and dispersed with glass beads (1 mm) in a mini bead beater for 2 min. Glycerol was added to the suspension to 10% and frozen at −80° C.
Each batch of frozen stock culture was then characterized in separate growth experiments using Mueller-Hinton broth to determine the minimum amount of inoculum giving satisfactory growth after 48 h under the conditions relevant for the MIC assay. This inoculation procedure is used in order to reduce day to day variation in bioassays.
Robotic minimum inhibitory concentration (MIC) assay was performed as follows. OligoG CF-5/20 was dissolved in medium (Mueller-Hinton broth) to 1.25 times of the desired assay concentrations (2, 6 and 10%). […].
Two-fold serial dilutions of antifungal agents were made in medium with different concentrations of OligoG CF-5/20, and the solutions were placed in four parallel wells in Nunc 384-well micro plates (30 μl per well in Nunc 242757 microplates). A group of 8 wells with no addition of antifungal agents for each OligoG CF-5/20 concentration was included on each micro plate as growth reference. Each well in the 384-well assay plates was added 7.5 μl of the MH medium inoculated with frozen stock culture of the relevant strains.
The microplates were placed in plastic bags and incubated without shaking at 34° C. The optical density at 600 nm in the microwells was measured after approximately 24 and 48 hours of incubation. […]

[2] = system: C. parapsillosis ATCC 22019T; experiment: Robotic MIC assay, Candida strains (Example 2); type: cell-based, Candida parapsilosis; conditions: Lodderomyces parapsilosis, ATCC22019, 48 h, Mueller-Hinton broth, read-out: Minimum Inhibitory Concentration (MIC)
Procedure: (§1) A robotic MIC Assay was performed as follows. OligoG CF-5/20 were dissolved in medium (Mueller-Hinton broth or M19 broth depending on experiment) to 1.25 times of the desired assay concentrations (2, 6 and 10%). The antifungal agents under test were dissolved in medium without OligoG CF-5/20 and in medium with OligoG CF-5/20 at a concentration of 1.25 times the highest desired assay concentrations. For experiments where the effect of adding different concentrations of Na^+ was investigated, NaCl was dissolved in medium to the desired concentrations (10, 30 and 50 mM).
(§2) Two-fold serial dilutions of antifungal agents were made in medium with different concentrations of OligoG CF-5/20, and the solutions were placed in four parallel wells in Nunc 384-well micro plates (30 μl per well in Nunc 242757 microplates). A group of 8 wells with no addition of antifungal agents for each OligoG CF-5/20 concentration was included on each microplate as growth reference. To each well in the 384-well assay plates was added 7.5 μl of medium inoculated with a frozen stock culture of Candida albicans (strain CCUG 39343).
(§3) The micro plates were placed in plastic bags and incubated without shaking at 34° C. The optical density at 600 nm in the microwells was measured after approximately 13, 18, 24 and 34 hours of incubation, and the relative growth yield in each well was calculated based on the growth in the reference groups.
(§4) The robotic assay described in Example 1 was employed in this Example. Strains were grown in Mueller-Hinton broth (LAB114 from Lab M Limited) and MIC values (μg ml-1) were determined for each antifungal after incubation for 48 h in the presence of 0, 2, 6 and 10% OligoG CF-5/20 G-fragments. […] OligoG CF-5/20 G-fragments were provided by AlgiPharma AS, Norway.
(§5) Candida strains used were as follows: • C. albicans CCUG 39343 (strain from culture collection) • C. parapsillosis ATCC 22019T (strain from culture collection) • C. krusei 141/03 (candidosis) • C. krusei 249/03(2) (ulceration) • C. lusitaniae 994/01(2) (candidosis) • C. tropicalis 12 (vaginal) • C. tropicalis 75 (vaginal) • C. tropicalis 519468 (urinary) • C. tropicalis 544123 (urinary) • C. tropicalis 250/03 (candidosis) • C. tropicalis AG1 (oral) • C. tropicalis T2.2 (oral)

[3] = system: C. tropicalis 544123 (urinary); experiment: Robotic MIC assay, Candida strains (Example 2); type: cell-based; conditions: Candida tropicalis, 48 h, Mueller-Hinton broth, read-out: Minimum Inhibitory Concentration (MIC)
Procedure: as §1, §2, §3, §4, §5

C. tropicalis AG1 (oral) = experiment: Robotic MIC assay, Candida strains (Example 2); type: cell-based; conditions: Candida tropicalis, 48 h, Mueller-Hinton broth, read-out: Minimum Inhibitory Concentration (MIC)
Procedure: as §1, §2, §3, §4, §5

[4] = system: C. tropicalis T2.2 (oral); experiment: Robotic MIC assay, Candida strains (Example 2); type: cell-based; conditions: Candida tropicalis, 48 h, Mueller-Hinton broth, read-out: Minimum Inhibitory Concentration (MIC)
Procedure: as §1, §2, §3, §4, §5

[5] = system: C. krusei 249/03(2) (ulceration); experiment: Robotic MIC assay, Candida strains (Example 2); type: cell-based; conditions: Pichia kudriavzevii, 48 h, Mueller-Hinton broth, read-out: Minimum Inhibitory Concentration (MIC)
Procedure: as §1, §2, §3, §4, §5

[6] = system: C. tropicalis 75 (vaginal); experiment: Robotic MIC assay, Candida strains (Example 2); type: cell-based; conditions: Candida tropicalis, 48 h, Mueller-Hinton broth, read-out: Minimum Inhibitory Concentration (MIC)
Procedure: as §1, §2, §3, §4, §5

[7] = system: C. tropicalis 12 (vaginal); experiment: Robotic MIC assay, Candida strains (Example 2); type: cell-based; conditions: Candida tropicalis, 48 h, Mueller-Hinton broth, read-out: Minimum Inhibitory Concentration (MIC)
Procedure: as §1, §2, §3, §4, §5

[8] = system: C. krusei 141/03 (candidosis); experiment: Robotic MIC assay, Candida strains (Example 2); type: cell-based; conditions: Pichia kudriavzevii, 48 h, Mueller-Hinton broth, read-out: Minimum Inhibitory Concentration (MIC)
Procedure: as §1, §2, §3, §4, §5

[9] = system: C. lusitaniae 994/01(2) (candidosis); experiment: Robotic MIC assay, Candida strains (Example 2); type: cell-based; conditions: Clavispora lusitaniae, 48 h, Mueller-Hinton broth, read-out: Minimum Inhibitory Concentration (MIC)
Procedure: as §1, §2, §3, §4, §5

C. albicans CCUG 39343 = experiment: Robotic MIC assay, Candida strains (Example 2); type: cell-based; conditions: Candida albicans, CCUG39343, 48 h, Mueller-Hinton broth, read-out: Minimum Inhibitory Concentration (MIC)
Procedure: as §1, §2, §3, §4, §5

[10] = system: C. tropicalis 519468 (urinary); experiment: Robotic MIC assay, Candida strains (Example 2); type: cell-based; conditions: Candida tropicalis, 48 h, Mueller-Hinton broth, read-out: Minimum Inhibitory Concentration (MIC)
Procedure: as §1, §2, §3, §4, §5

[11] = system: C. tropicalis 250/03 (candidosis); experiment: Robotic MIC assay, Candida strains (Example 2); type: cell-based; conditions: Candida tropicalis, 48 h, C. tropicalis 250/03 Candiosis, Mueller-Hinton broth, read-out: Minimum Inhibitory Concentration (MIC)
Procedure: as §1, §2, §3, §4, §5

Compound: C[C@@H]1[C@H](O)[C@@H](C)/C=C/C=C/C=C/C=C/C=C/C=C/C=C/[C@H](O[C@@H]2O[C@H](C)[C@@H](O)[C@H](N)[C@@H]2O)C[C@@H]2O[C@](O)(C[C@@H](O)C[C@@H](O)[C@H](O)CC[C@@H](O)C[C@@H](O)CC(=O)O[C@H]1C)C[C@H](O)[C@H]2C(=O)O [Amphotericin B, amphotericin B]
effect of addition of OligoG CF-5/20 on MIC values [1]: reduction in MIC values

MIC ([2]; 0% OligoG): 2 µg/mL (≈ 6.53 µM) | MIC ([2]; 2% OligoG): 2 µg/mL (≈ 6.53 µM) | MIC ([2]; 6% OligoG): 0.5 µg/mL (≈ 1.63 µM) | MIC ([2]; 10% OligoG): 0.25 µg/mL (≈ 0.816 µM) | MIC ([3]; 0% OligoG): 1 µg/mL (≈ 3.27 µM) | MIC ([3]; 2% OligoG): 1 µg/mL (≈ 3.27 µM) | MIC ([3]; 6% OligoG): 0.5 µg/mL (≈ 1.63 µM) | MIC ([3]; 10% OligoG): 0.25 µg/mL (≈ 0.816 µM) | MIC (C. tropicalis AG1 (oral); 0% OligoG): 128 µg/mL (≈ 418 µM) | MIC (C. tropicalis AG1 (oral); 2% OligoG): > 128 µg/mL | MIC (C. tropicalis AG1 (oral); 6% OligoG): 0.5 µg/mL (≈ 1.63 µM) | MIC (C. tropicalis AG1 (oral); 10% OligoG): 0.125 µg/mL (≈ 0.408 µM) | MIC ([4]; 0% OligoG): > 128 µg/mL | MIC ([4]; 2% OligoG): 0.5 µg/mL (≈ 1.63 µM) | MIC ([4]; 6% OligoG): 0.25 µg/mL (≈ 0.816 µM) | MIC ([4]; 10% OligoG): < 0.125 µg/mL | MIC ([6]; 0% OligoG): 2 µg/mL (≈ 6.53 µM) | MIC ([6]; 2% OligoG): 1 µg/mL (≈ 3.27 µM) | MIC ([6]; 6% OligoG): 0.5 µg/mL (≈ 1.63 µM) | MIC ([6]; 10% OligoG): 0.25 µg/mL (≈ 0.816 µM) | MIC ([7]; 0% OligoG): 1 µg/mL (≈ 3.27 µM) | MIC ([7]; 2% OligoG): 1 µg/mL (≈ 3.27 µM) | MIC ([7]; 6% OligoG): < 0.125 µg/mL | MIC ([7]; 10% OligoG): < 0.125 µg/mL | MIC ([8]; 0% OligoG): 128 µg/mL (≈ 418 µM) | MIC ([8]; 2% OligoG): 64 µg/mL (≈ 209 µM) | MIC ([8]; 6% OligoG): 64 µg/mL (≈ 209 µM) | MIC ([8]; 10% OligoG): 64 µg/mL (≈ 209 µM) | MIC ([9]; 0% OligoG): 0.5 µg/mL (≈ 1.63 µM) | MIC ([9]; 2% OligoG): 0.25 µg/mL (≈ 0.816 µM) | MIC ([9]; 6% OligoG): < 0.125 µg/mL | MIC ([9]; 10% OligoG): < 0.125 µg/mL | MIC (C. albicans CCUG 39343; 0% OligoG): 16 µg/mL (≈ 52.2 µM) | MIC (C. albicans CCUG 39343; 2% OligoG): 16 µg/mL (≈ 52.2 µM) | MIC (C. albicans CCUG 39343; 6% OligoG): 8 µg/mL (≈ 26.1 µM) | MIC (C. albicans CCUG 39343; 10% OligoG): 4 µg/mL (≈ 13.1 µM) | MIC ([10]; 0% OligoG): 128 µg/mL (≈ 418 µM) | MIC ([10]; 2% OligoG): 1 µg/mL (≈ 3.27 µM) | MIC ([10]; 6% OligoG): 0.5 µg/mL (≈ 1.63 µM) | MIC ([10]; 10% OligoG): 0.25 µg/mL (≈ 0.816 µM) | MIC ([11]; 0% OligoG): 8 µg/mL (≈ 26.1 µM) | MIC ([11]; 2% OligoG): 4 µg/mL (≈ 13.1 µM) | MIC ([11]; 6% OligoG): 2 µg/mL (≈ 6.53 µM) | MIC ([11]; 10% OligoG): 2 µg/mL (≈ 6.53 µM)
Compound: OC(Cn1cncn1)(Cn1cncn1)c1ccc(F)cc1F [Fluconazole, fluconazole]
MIC ([5]; 0% OligoG): 8 µg/mL (≈ 26.1 µM) | MIC ([5]; 2% OligoG): 4 µg/mL (≈ 13.1 µM) | MIC ([5]; 6% OligoG): 2 µg/mL (≈ 6.53 µM) | MIC ([5]; 10% OligoG): 1 µg/mL (≈ 3.27 µM)
